From ChEMBL document CHEMBL1201862, “PubChem BioAssay data set” (2004)
Active and inactive are the calls of the source.

Legend:
[1] = biological target: Voltage-gated inwardly rectifying potassium channel KCNH2 (Homo sapiens, UniProt Q12809); conditions: Potency;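 further: confirmatory quantitative high-throughput screen measuring inhibition of hERG channel activity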
[2] = test system: BJ; assay: cytotoxicity toward BJ-TERT fibroblasts, dose response, cell-based, RAS-independent, luminescence (AID 1933); type: functional; conditions: Homo sapiens
[3] = test system: BJ; assay: cells; type: functional, cell-based; conditions: Homo sapiens
[4] = test system: BJ; assay: cytotoxicity toward BJ-TERT-LT-ST fibroblasts, dose response, cell-based, RAS-independent, luminescence (AID 1935); type: functional; conditions: Homo sapiens;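 further: BJ fibroblasts immortalized with TERT plus LT and ST oncogenes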
[5] = cytotoxicity toward DRD oncogenic fibroblasts, dose response, cell-based, non-viral oncogenic, luminescence (AID 1934); type: functional; conditions: Homo sapiens
[6] = test system: HEK293; assay: cells; type: functional, cell-based; conditions: Homo sapiens
[7] = biological target: Genome polyprotein (dengue virus type 2, UniProt P29990); assay: Dengue-2 NS5 methyltransferase inhibitors, primary screen, biochemical, confirmation dose response (AID 588689); type: functional
[8] = biological target: T1, Nuclear receptor subfamily 0 group B member 1 (Homo sapiens, UniProt P51843); assay: Luminescence-based cell-based high throughput dose response assay for inhibitors of the orphan nuclear receptor subfamily 0, group B, member 1 (DAX1; NR0B1). [Related pubchem assays (depositor defined):AID504766, AID504790]; type: functional
T1 sequence (P51843 whole entry): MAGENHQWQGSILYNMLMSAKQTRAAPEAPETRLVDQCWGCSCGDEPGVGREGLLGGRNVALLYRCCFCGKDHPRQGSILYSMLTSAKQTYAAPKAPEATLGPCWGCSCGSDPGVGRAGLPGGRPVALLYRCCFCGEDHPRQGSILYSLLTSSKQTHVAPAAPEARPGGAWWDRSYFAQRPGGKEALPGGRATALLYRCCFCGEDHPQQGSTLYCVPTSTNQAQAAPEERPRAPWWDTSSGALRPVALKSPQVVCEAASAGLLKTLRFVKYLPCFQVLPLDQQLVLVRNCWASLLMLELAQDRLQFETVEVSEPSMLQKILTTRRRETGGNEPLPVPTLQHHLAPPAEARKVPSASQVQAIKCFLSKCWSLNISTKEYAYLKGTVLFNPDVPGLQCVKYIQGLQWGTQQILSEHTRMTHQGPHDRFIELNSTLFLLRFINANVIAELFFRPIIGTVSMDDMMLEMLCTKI

[9] = inhibitors of firefly luciferase expression or activity, dose response, H4 neuroglioma cells, luminescence (AID 1990); type: functional, cell-based
[10] = Luminescence Cell-Based Dose Response HTS to Identify Inhibitors of 5'UTR Stem-Loop Driven Prion Protein mRNA Translation in H4 Neuroglioblastoma Cells. [Related pubchem assays: 1827 (Project Summary), 1813 (Primary HTS)]; type: functional
[11] = inhibitors of SNCA 5'UTR-driven reporter translation, confirmation, H4 neuroglioma cells, luminescence (AID 1988); type: functional, cell-based
[12] = inhibitors of HIV Env-driven cell fusion, dose response, cherry-pick (AID 652057); type: functional, cell-based
[13] = ZM109 Env clade C HIV-1 fusion inhibitors, dose response, HeLa effector, CEM target cells, luciferase, cherry-pick (AID 652058); type: functional, cell-based
[14] = off-target signal loss in HeLa-CEM21 co-culture – HeLa F-luc CTL cells, cherry-picked, counter-screen for HIV-1 Env fusion inhibitor project, dose response (AID 652040); type: functional, cell-based;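 further: potency for signal decrease marking cytotoxic or nonspecific inhibition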
[15] = inhibitors of clade B AD8 Env fusion, dose response, cell-based, cherry-pick (AID 652062); type: functional;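 further: luciferase signal from cell-cell fusion driven by HIV-1 clade B AD8 Env; potency is for inhibitors of fusion seen as a drop in luminescence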
[16] = test system: Vero; assay: cells; type: functional; conditions: Chlorocebus sabaeus
[17] = NIH-3T3 fibroblast cytotoxicity, dose response, cytotoxicity control, cell-based, fluorescence, Alamar Blue, secondary assay (AID 2327); type: functional;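 further: NIH-3T3 mouse fibroblasts cultured with fluconazole at 8 µg/mL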
[18] = C. albicans growth with fluconazole, confirmation, fluorescence, retest (AID 2467); type: functional, cell-based
[19] = biological target: Dual specificity tyrosine-phosphorylation-regulated kinase 1A (Rattus norvegicus, UniProt Q63470); type: biochemical, Homo sapiens
[20] = test system: HeLa; assay: HeLa cell cytotoxicity, dose response, cytotoxicity control for MITF activator project, CellTiter-Glo luminescence, cherry-pick samples (AID 540259); type: functional, cell-based; conditions: Homo sapiens
[21] = biological target: T2, Hepatocyte nuclear factor 4-alpha (Homo sapiens, UniProt P41235); type: functional, cell-based;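 further: biochemical luminescence-based dose-response counterscreen measuring inhibition of HNF4 dimerization, run alongside a screen for blockers of ABHD5–perilipin-5 interaction; split luciferase complementation of HNF4 fusion proteins in cell lysate measuring dimerization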
T2 sequence (P41235 whole entry): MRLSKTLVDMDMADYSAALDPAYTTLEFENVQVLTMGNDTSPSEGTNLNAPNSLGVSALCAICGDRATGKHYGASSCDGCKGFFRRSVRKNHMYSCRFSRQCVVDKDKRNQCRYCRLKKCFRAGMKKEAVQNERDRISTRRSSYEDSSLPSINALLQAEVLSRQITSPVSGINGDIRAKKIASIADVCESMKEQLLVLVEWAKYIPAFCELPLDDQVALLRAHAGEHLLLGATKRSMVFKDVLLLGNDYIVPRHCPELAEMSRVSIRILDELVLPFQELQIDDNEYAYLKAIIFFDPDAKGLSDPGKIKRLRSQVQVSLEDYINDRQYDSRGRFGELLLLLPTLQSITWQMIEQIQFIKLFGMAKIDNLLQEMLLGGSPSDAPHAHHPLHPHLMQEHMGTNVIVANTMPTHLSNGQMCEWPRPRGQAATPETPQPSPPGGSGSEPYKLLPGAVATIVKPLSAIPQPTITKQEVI

[22] = biological target: T3, Rac GTPase-activating protein 1 (Homo sapiens, UniProt Q9H0H5); assay: MgcRacGAP GTPase-activating activity inhibitors, confirmation, biochemical, ADP Hunter fluorescence, primary and confirmatory (AID 624330); type: functional
T3 sequence (Q9H0H5 whole entry): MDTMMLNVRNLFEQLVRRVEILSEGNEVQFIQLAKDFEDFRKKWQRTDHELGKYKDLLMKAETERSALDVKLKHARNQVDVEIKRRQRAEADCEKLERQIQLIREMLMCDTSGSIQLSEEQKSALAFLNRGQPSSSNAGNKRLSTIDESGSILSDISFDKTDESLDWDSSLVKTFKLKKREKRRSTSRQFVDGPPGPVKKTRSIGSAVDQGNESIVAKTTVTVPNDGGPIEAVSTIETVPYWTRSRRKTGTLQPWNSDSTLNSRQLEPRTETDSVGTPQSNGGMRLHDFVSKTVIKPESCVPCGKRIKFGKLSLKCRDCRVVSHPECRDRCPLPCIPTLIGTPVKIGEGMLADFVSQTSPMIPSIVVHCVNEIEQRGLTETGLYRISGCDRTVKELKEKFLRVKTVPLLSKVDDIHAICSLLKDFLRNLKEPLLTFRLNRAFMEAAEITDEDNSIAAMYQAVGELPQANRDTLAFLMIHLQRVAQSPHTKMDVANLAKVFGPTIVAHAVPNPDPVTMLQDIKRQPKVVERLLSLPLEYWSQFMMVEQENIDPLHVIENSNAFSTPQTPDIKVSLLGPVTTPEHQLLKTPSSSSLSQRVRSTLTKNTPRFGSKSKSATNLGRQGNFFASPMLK

Sequence of Voltage-gated inwardly rectifying potassium channel KCNH2 (Q12809 whole entry): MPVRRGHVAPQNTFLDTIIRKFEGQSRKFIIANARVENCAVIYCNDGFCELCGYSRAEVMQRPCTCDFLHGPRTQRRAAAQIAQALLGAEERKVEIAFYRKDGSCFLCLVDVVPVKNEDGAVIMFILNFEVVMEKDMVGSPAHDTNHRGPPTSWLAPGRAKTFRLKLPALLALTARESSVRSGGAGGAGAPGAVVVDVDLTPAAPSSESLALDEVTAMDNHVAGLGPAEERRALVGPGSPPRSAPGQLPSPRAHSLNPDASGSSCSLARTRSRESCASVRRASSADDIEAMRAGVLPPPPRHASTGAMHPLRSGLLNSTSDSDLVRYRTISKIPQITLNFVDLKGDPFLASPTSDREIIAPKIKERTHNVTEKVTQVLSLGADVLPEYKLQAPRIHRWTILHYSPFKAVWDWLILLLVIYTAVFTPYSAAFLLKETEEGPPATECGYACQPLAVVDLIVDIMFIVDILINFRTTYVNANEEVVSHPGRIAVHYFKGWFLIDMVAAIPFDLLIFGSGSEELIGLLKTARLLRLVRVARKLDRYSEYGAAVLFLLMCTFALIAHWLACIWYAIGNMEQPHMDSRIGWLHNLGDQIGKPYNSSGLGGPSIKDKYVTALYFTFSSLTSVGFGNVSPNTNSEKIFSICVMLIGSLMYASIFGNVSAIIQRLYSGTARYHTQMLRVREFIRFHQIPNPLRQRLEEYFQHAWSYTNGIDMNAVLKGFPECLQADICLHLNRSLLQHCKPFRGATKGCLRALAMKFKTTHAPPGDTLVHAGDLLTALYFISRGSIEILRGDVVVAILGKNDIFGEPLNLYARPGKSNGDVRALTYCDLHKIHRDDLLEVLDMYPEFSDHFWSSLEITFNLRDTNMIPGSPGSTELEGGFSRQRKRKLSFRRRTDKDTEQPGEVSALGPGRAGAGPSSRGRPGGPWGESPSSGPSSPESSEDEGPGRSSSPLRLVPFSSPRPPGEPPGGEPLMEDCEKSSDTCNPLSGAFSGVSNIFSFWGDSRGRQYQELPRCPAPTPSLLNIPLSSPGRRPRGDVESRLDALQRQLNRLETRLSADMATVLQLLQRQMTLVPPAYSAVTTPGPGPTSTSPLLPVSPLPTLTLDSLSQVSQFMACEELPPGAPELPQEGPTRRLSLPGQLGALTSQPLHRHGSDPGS
Sequence of Genome polyprotein (P29990 2492-3391 limits assumed): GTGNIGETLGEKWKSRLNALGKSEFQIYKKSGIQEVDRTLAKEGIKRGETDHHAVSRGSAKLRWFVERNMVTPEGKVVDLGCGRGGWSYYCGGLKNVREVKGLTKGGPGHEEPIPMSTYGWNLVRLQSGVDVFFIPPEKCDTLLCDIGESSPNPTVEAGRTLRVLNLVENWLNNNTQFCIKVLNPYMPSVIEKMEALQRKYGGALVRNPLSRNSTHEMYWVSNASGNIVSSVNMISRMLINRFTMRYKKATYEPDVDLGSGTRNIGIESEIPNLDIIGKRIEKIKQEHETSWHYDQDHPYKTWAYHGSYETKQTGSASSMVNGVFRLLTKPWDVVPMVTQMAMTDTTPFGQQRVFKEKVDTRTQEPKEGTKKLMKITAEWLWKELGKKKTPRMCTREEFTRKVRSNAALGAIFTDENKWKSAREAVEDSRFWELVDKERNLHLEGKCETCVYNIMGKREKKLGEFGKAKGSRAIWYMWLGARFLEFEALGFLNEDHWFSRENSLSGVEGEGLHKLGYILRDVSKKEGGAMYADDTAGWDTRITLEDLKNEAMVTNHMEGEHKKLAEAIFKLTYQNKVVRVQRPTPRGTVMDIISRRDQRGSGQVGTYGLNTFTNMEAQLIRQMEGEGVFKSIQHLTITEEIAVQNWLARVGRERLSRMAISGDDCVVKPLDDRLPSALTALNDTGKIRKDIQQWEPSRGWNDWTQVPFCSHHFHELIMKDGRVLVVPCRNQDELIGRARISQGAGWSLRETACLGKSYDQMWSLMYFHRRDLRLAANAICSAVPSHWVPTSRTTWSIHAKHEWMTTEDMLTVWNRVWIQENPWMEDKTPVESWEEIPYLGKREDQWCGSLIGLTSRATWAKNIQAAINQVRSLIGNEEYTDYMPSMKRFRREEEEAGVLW

## CCCCC(CC)CNCC(CC)CCCC (stereo not given)
[1]
  AC50: 10 µM (inconclusive)

## c1ccc(CSCc2ccccc2)cc1
[1]
  AC50: 31.6 µM (inconclusive)

## O=C(O)c1ccccc1C(=O)c1ccc(Sc2ccc(Cl)cc2)c([N+](=O)[O-])c1
[2]
  EC50: > 150 µM (not active)
[3]
  EC50: > 150 µM (not active)
[4]
  EC50: > 150 µM (not active)
[5]
  EC50: > 150 µM (not active)
[6]
  IC50: > 67.5 µM (inactive)
[7]
  IC50: 35.1 µM (active)
[8]
  IC50: > 67.5 µM (inactive)

## O=C(NCc1ccco1)c1ccc(Cn2c(=O)c3ccccc3n(Cc3cccc(F)c3)c2=O)cc1
[9]
  EC50: 15.1 µM (active)
[10]
  EC50: > 120 µM (not active)
[11]
  EC50: 41.4 µM (active)
[12]
  AC50: 2.17 µM (active)
[13]
  AC50: 5.5 µM (active)
[14]
  AC50: 3.52 µM (active)

## COc1cc(OCC(=O)NC(C)C)cc2c1C(=O)O[C@@H](C)CCCC(=O)CCCCC2
[12]
  AC50: 6.38 µM (active)
[13]
  AC50: 6.68 µM (active)
[14]
  AC50: 10.5 µM (active)
[15]
  AC50: 26.4 µM (active)

## CCCCC(=O)NC(c1ccc([N+](=O)[O-])cc1)c1c(O)ccc2ccccc12 (stereo not given)
[16]
  CC50: 9.36 µM (active)

## O=C(Nc1cccc(Cl)c1)Nc1nccs1
[17]
  EC50: > 160 µM (inactive)
[18]
  EC50: 1.17 µM (active)
[19]
  AC50: 8.46 µM (active)

## CN1CCN(c2ccc3ccccc3n2)CC1
[1]
  AC50: 35.5 µM (inconclusive)

## CN1CCSc2ccc(C(=O)Nc3cc(F)ccc3F)cc21
[6]
  IC50: > 67.5 µM (inactive)
[8]
  IC50: > 67.5 µM (inactive)
[20]
  AC50: 44.2 µM (active)

## O=C(O)/C=C/c1ccc(/C=C/C(=O)O)cc1
[1]
  AC50: 79.4 µM (inconclusive)

## O=C(/C(=C/c1ccccc1)n1cncn1)c1ccc(Cl)cc1Cl
[21]
  IC50: 3.22 µM (active)
[22]
  IC50: 150 µM (active)
